A word on the Ki: it is a measure of affinity in units of concentration, obtained from inhibition or displacement.

19 compounds from patent US9732087B2, “Diamino-pyridine, pyrimidine, and pyridazine modulators of the histamine H4 receptor” (JANSSEN PHARMACEUTICA NV, priority 2008, dated 2017) can be followed below.

Structures can show the parent of a compound that is named as a salt.

human H4 receptor, sequence (Q9H3N8 whole entry): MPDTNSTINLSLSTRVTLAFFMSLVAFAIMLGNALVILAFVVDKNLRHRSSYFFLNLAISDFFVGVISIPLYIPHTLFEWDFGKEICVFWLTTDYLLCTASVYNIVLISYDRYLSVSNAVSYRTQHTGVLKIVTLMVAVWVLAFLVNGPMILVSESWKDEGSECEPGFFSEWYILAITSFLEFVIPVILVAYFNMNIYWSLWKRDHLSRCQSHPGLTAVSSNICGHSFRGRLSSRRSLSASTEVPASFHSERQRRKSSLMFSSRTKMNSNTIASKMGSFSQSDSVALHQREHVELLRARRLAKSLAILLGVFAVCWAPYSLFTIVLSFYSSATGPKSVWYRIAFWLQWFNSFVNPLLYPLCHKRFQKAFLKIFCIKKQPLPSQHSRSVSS

The target in one test is human H4 receptor (Homo sapiens (Human), UniProt Q9H3N8). The test can be described thus: Binding assay on recombinant human histamine H4 receptor ([3H]histamine competition, SK-N-MC cell membranes). Conditions: membranes harvested with 96 well Brandel system; [3H]histamine 10 nM; average of results; read-out: Brandel Ki. On the procedure:
Binding Assay on Recombinant Human Histamine H4Receptor
Cell pellets from SK-N-MC cells stably or transiently transfected with human H4 receptor (NCBI accession No. AF312230) were used for the binding assays. Cell pellets were homogenized in 50 mM Tris/5 mM EDTA buffer and supernatants from an 800 g spin were collected and recentrifuged at 30,000 g for 30 min. Pellets were rehomogenized in 50 mM Tris/5 mM EDTA buffer. […] Membranes were harvested by rapid filtration using the 96 well Brandel system (Table 1, Brandel) or a cell harvester (Table 1, Cell Harvester) using a Whatman GF/C filter or filter plates treated with 0.5% polyethylenimine (PEI), and washed 4 times with ice-cold 50 mM Tris/5 mM EDTA buffer. Filters were then dried, mixed with scintillant and radioactive counts were determined. […] Where activity is shown as greater than (>) a particular value, the value is the highest concentration tested.
Regarding `CN1CCN(c2ccnc(NC3CC4CCC3C4)n2)CC1` (stereo not drawn) [Example 44, N-[Bicyclo[2.2.1]hept-2-yl]-4-(4-methylpiperazin-1-yl)pyrimidin-2-amine], the Ki amounted to 31.5 nM. Same read-out and setting: to `CC(C)CNc1nccc(N2CCN(C)CC2)n1` [Example 31, Isobutyl-[4-(4-methyl-piperazin-1-yl)-pyrimidin-2-yl]-amine] belongs 69 nM.

Staying with this test, now noted: membranes harvested with cell harvester; [3H]histamine 10 nM; average of results; read-out: Cell Harvester Ki.
On to `N[C@@H]1CCN(c2ccnc(NCc3ccc(F)cc3)n2)C1` [Example 57, 4-[(3R)-3-Aminopyrrolidin-1-yl]-N-(4-fluorobenzyl)pyrimidin-2-amine], for which the Ki was 140 nM. Still for that read-out and setting: to `CC(C)(O)CNc1cc(N2CC[C@H](N)C2)ccn1` [Example 273, 1-({4-[(3S)-3-Aminopyrrolidin-1-yl]pyridin-2-yl}amino)-2-methylpropan-2-ol] belongs 3170 nM.

`NC1CN(c2ccnc(NC3CC3)n2)C1` [Example 91, 4-(3-Aminoazetidin-1-yl)-N-cyclopropylpyrimidin-2-amine]: the Ki is 182 nM.

In the case of `CN[C@H]1CCN(c2ccnc(NCCCO)c2)C1` [Example 234, 3-({4-[(3S)-3-(Methylamino)pyrrolidin-1-yl]pyridin-2-yl}amino)propan-1-ol], the Ki was 7260 nM. Same read-out and setting: to `c1nnc(NCC2CCCC2)cc1N1CCNCC1` [Example 363, N-(Cyclopentylmethyl)-5-piperazin-1-ylpyridazin-3-amine] belongs 4730 nM. On the same count and under the same terms, to `CN[C@H]1CCN(c2cnnc(NC3CC3)c2)C1` [Example 395, N-Cyclopropyl-5-[(3S)-3-(methylamino)pyrrolidin-1-yl]pyridazin-3-amine] belongs 1900 nM; to `CNC1CN(c2cnnc(NCCOC)c2)C1` [Example 320, N-(2-Methoxyethyl)-5-[3-(methylamino)azetidin-1-yl]pyridazin-3-amine], 4310 nM; to `CN[C@@H]1CCN(c2ccnc(NCc3ccccc3)n2)C1` [Example 174, N-Benzyl-4-[(3R)-3-(methylamine)pyrrolidin-1-yl]pyrimidin-2-amine], 19.1 nM. Still for that read-out and setting: to `c1nnc(NC2CC2)cc1N1C[C@H]2CCN[C@H]2C1` [Example 309, N-Cyclopropyl-5-[(3aR,6aR)-hexahydropyrrolo[3,4-b]pyrrol-5(1H)-yl]pyridazin-3-amine] belongs 1600 nM; to `NC1CN(c2ccnc(N[C@@H]3CCOC3)n2)C1` [Example 93, 4-(3-Aminoazetidin-1-yl)-N-[(3R)-tetrahydrofuran-3-yl]pyrimidin-2-amine], 702 nM.

On to `CN[C@@H]1CCN(c2cnnc(NCc3ccccc3)c2)C1` [Example 397, N-Benzyl-5-[(3R)-3-(methylamino)pyrrolidin-1-yl]pyridazin-3-amine], for which the inhibitory constant (Ki) was determined as 353 nM. Consider `CNC1CN(c2ccnc(NCC(C)C)n2)C1` [Example 171, 4-[3-(Methylamino)azetidin-1-yl]-N-(2-methylpropyl)pyrimidin-2-amine], for which the Ki was found to be 3.89 nM. Same read-out and setting: to `CCCNc1cc(N2CCNCC2)ccn1` [Example 17, 4-Piperazin-1-yl-N-propylpyridin-2-amine dihydrochloride] belongs 375 nM; to `CN1CCN(c2ccnc(NC3CC4CCC3C4)n2)CC1` (stereo not drawn) [Example 44, N-[Bicyclo[2.2.1]hept-2-yl]-4-(4-methylpiperazin-1-yl)pyrimidin-2-amine], 85.7 nM; to `CC(C)CNc1nccc(N2CCN(C)CC2)n1` [Example 31, Isobutyl-[4-(4-methyl-piperazin-1-yl)-pyrimidin-2-yl]-amine], 76.9 nM. Take `N[C@H]1CCN(c2ccnc(NC3CCCC3)n2)C1` [Example 160, 4-[(3S)-3-Aminopyrrolidin-1-yl]-N-cyclopentylpyrimidin-2-amine]: the Ki was determined as 86.7 nM. For `CC(C)(C)CNc1cc(N2CCNCC2)cnn1` [Example 357, N-(2,2-Dimethylpropyl)-5-piperazin-1-ylpyridazin-3-amine], the Ki worked out at 4370 nM. Same read-out and setting: the value for `CN[C@H]1CCN(c2ccnc(NC3C4CC5CC(C4)CC3C5)c2)C1` (stereo partly drawn) [Example 215, Adamantan-2-yl-[4-(3S)-(3-methylamino-pyrrolidin-1-yl)-pyridin-2-yl]-amine] was 69.6 nM; that for `CC(C)(C)CNc1cc(N2CC[C@@H](N)C2)cnn1` [Example 371, 5-[(3R)-3-Aminopyrrolidin-1-yl]-N-(2,2-dimethylpropyl)pyridazin-3-amine] was 130 nM.
